These results are taken from US8487108B2, “Piperidinyl carbamate intermediates for the synthesis of aspartic protease inhibitors” (Vitae Pharmaceuticals, Inc., priority 2005, dated 2013).

The test addresses T1, trypsin-activated recombinant human renin (Homo sapiens, UniProt P00797).
T1 sequence (P00797 67-406): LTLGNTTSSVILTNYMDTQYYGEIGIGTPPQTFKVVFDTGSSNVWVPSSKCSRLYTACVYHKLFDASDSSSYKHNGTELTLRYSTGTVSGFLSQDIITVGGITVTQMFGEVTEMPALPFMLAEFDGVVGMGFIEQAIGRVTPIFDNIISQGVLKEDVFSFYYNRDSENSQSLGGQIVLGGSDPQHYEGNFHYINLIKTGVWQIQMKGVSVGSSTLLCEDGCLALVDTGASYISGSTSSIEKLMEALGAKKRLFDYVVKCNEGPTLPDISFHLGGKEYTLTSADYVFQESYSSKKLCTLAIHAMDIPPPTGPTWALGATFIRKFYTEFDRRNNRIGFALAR
The test is described as follows: Renin fluorescence assay (internally quenched peptide substrate). It counts as biochemical. As to conditions: compounds I*. In short, it runs like this: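 Cleavage of an angiotensinogen-derived DABCYL-quenched peptide by trypsin-activated recombinant human renin (0.2-2 nM final) in 50 mM BES, 150 mM NaCl, 0.25 mg/mL BSA, pH 7.0; compounds 10 μM to 1 nM final. Fluorescence (ex 340/em 495 nm) followed 60-360 min at rt; linear-slope rates give percent inhibition versus uninhibited control.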
What is called IC50 is the concentration needed to halve the response being measured. Turning to `CNC[C@H](C[C@H]1CCCOC1)NC(=O)N1CCC[C@@H]([C@@](O)(CCCNC(=O)OC)c2cccc(Cl)c2F)C1` [I*-142a, methyl (S)-4-(3-chloro-2-fluorophenyl)-4-hydroxy-4-((R)-1-((S)-1-(methylamino)-3-((R)-tetrahydro-2H-pyran-3-yl)propan-2-ylcarbamoyl)piperidin-3-yl)butylcarbamate], the IC50 was below 10 nM.
For `CNC[C@H](CC1CCCCC1)NC(=O)N1CCC[C@@H]([C@@H](OCCNC(=O)OC)c2cc(F)cc(F)c2)C1` [I*-64a, methyl 2-((R)-((R)-1-((S)-1-cyclohexyl-3-(methylamino)propan-2-ylcarbamoyl)piperidin-3-yl)(3,5-difluorophenyl)methoxy)ethylcarbamate], the IC50 is below 1 nM.
As to `CNC[C@H](CC1CCOCC1)NC(=O)N1CCC[C@@H]([C@@H](OCCNC(=O)OC)c2cc(C)ccc2F)C1` [I*-49a, methyl 2-((R)-(2-fluoro-5-methylphenyl)((R)-1-((S)-1-(methylamino)-3-(tetrahydro-2H-pyran-4-yl)propan-2-ylcarbamoyl)piperidin-3-yl)methoxy)ethylcarbamate], the IC50 is above 50 nM.
As for `CNC[C@H](C[C@H]1CCC(C)(C)OC1)NC(=O)N1CCC[C@@H]([C@@H](OCCNC(=O)OC)c2cccc(F)c2)C1` [I*-154a, methyl 2-((R)-(3-fluorophenyl)((R)-1-((S)-1-((R)-6,6-dimethyl-tetrahydro-2H-pyran-3-yl)-3-(methylamino)propan-2-ylcarbamoyl)piperidin-3-yl)methoxy)ethylcarbamate], the IC50 was below 20 nM.
Take `CNC[C@H](CC1CCCCC1)NC(=O)N1CCCC[C@@H]([C@@H](OCCNC(=O)OC)c2cccc(Cl)c2)C1` [I*-91a, methyl 2-((R)-(3-chlorophenyl)((R)-1-((S)-1-cyclohexyl-3-(methylamino)propan-2-ylcarbamoyl)azepan-3-yl)methoxy)ethylcarbamate]: the half-inhibitory concentration (IC50) is below 10 nM.
Take `CNC[C@H](CC1CCCCC1)NC(=O)N1CCC[C@@H]([C@@H](CCCNC(=O)OC)c2cccc(F)c2)C1` [I*-23a, methyl (R)-4-((S)-1-((S)-1-cyclohexyl-3-(methylamino)propan-2-ylcarbamoyl)piperidin-3-yl)-4-(3-fluorophenyl)butylcarbamate]: the IC50 is below 10 nM.
For `CNC[C@@H](NC(=O)N1CCC[C@@H]([C@@H](OCCNC(=O)OC)c2cc(F)cc(F)c2)C1)[C@@H](O)C1CCCCC1` [I*-112a, methyl 2-((R)-((R)-1-((1S,2R)-1-cyclohexyl-1-hydroxy-3-(methylamino)propan-2-ylcarbamoyl)piperidin-3-yl)(3,5-difluorophenyl)methoxy)ethylcarbamate], the IC50 is below 1 nM.
Under `CNC[C@H](CC1CCOCC1)NC(=O)N1CCC[C@@H]([C@@H](OCCNC(=O)OC)c2cc(C)cc(C)c2)C1` [I*-36a, methyl 2-((R)-(3,5-dimethylphenyl)((R)-1-((S)-1-(methylamino)-3-(tetrahydro-2H-pyran-4-yl)propan-2-ylcarbamoyl)piperidin-3-yl)methoxy)ethylcarbamate] stands below 50 nM.
For `CNC[C@H](CC1CCCCC1)NC(=O)N1CCC[C@@H]([C@@H](OCCNC(=O)OC)c2cccc(C(F)(F)F)c2)C1` [I*-136a, methyl 2-((R)-((R)-1-((S)-1-cyclohexyl-3-(methylamino)propan-2-ylcarbamoyl)piperidin-3-yl)(3-(trifluoromethyl)phenyl)methoxy)ethylcarbamate], the half-maximal inhibitory concentration (IC50) was below 10 nM.
In the case of `CNC[C@H](CC1CCOCC1)NC(=O)N1CCC[C@@H]([C@@H](OCCNC(=O)OC)c2cc(F)ccc2F)C1` [I*-69a, methyl 2-((R)-(2,5-difluorophenyl)((R)-1-((S)-1-(methylamino)-3-(tetrahydro-2H-pyran-4-yl)propan-2-ylcarbamoyl)piperidin-3-yl)methoxy)ethylcarbamate], the IC50 is below 50 nM.
For `CNC[C@H](CC1CCCCC1)NC(=O)N1CCC[C@@H]([C@@H](OCCNC(=O)OC)C2CCCCC2)C1` [I*-10a, methyl 2-((S)-cyclohexyl((R)-1-((S)-1-cyclohexyl-3-(methylamino)propan-2-ylcarbamoyl)piperidin-3-yl)methoxy)ethylcarbamate], the IC50 was below 10 nM.
As for `COC(=O)NCCO[C@@H](c1cccc(F)c1)[C@@H]1CCCN(C(=O)NC[C@@H](N)C[C@H]2CCCCOC2)C1` [I*-28a, methyl 2-((R)-((R)-1-((S)-2-amino-3-((R)-oxepan-3-yl)propylcarbamoyl)piperidin-3-yl)(3-fluorophenyl)methoxy)ethylcarbamate], the IC50 was below 10 nM.
Consider `CNC[C@H](C[C@H]1CCCCOC1)NC(=O)N1CCC[C@@H]([C@@H](OCCNC(=O)OC)c2cc(F)cc(Cl)c2)C1` [I*-141a, methyl 2-((R)-(3-chloro-5-fluorophenyl)((R)-1-((S)-1-(methylamino)-3-((R)-oxepan-3-yl)propan-2-ylcarbamoyl)piperidin-3-yl)methoxy)ethylcarbamate], for which the IC50 was below 1 nM.
Under `CNC[C@H](CC1CCCCC1)NC(=O)N1CCC[C@@H]([C@@H](OCC(C)NC(=O)OC)c2cccc(Cl)c2)C1` (stereo partly shown) [I*-87a] stands below 50 nM; under `CNC[C@H](C[C@H]1CCCCOC1)NC(=O)N1CCC[C@@H]([C@@H](OCCNC(=O)OC)c2cc(F)cc(F)c2)C1` [I*-113a, methyl 2-((R)-(3,5-difluorophenyl)((R)-1-((S)-1-(methylamino)-3-((R)-oxepan-3-yl)propan-2-ylcarbamoyl)piperidin-3-yl)methoxy)ethylcarbamate], below 10 nM.
With `CNC[C@H](C[C@H]1CCCOC1)NC(=O)N1CCCC[C@@H]([C@@H](OCCNC(=O)OC)c2cccc(F)c2)C1` [I*-56a, methyl 2-((R)-(3-fluorophenyl)((R)-1-((S)-1-(methylamino)-3-((R)-tetrahydro-2H-pyran-3-yl)propan-2-ylcarbamoyl)azepan-3-yl)methoxy)ethylcarbamate], the IC50 is below 10 nM.
In the case of `CNC[C@H](CC1CCOCC1)NC(=O)N1CCC[C@@H]([C@@H](OCCNC(=O)OC)c2cccc(F)c2F)C1` [I*-71a, methyl 2-((R)-(2,3-difluorophenyl)((R)-1-((S)-1-(methylamino)-3-(tetrahydro-2H-pyran-4-yl)propan-2-ylcarbamoyl)piperidin-3-yl)methoxy)ethylcarbamate], the IC50 is below 20 nM.
As for `CN[C@H](CNC(=O)N1CCC[C@@H]([C@@H](OCCNC(=O)OC)c2cc(Cl)ccc2C)C1)C[C@H]1CCCCOC1` [I*-133a, methyl 2-((R)-(5-chloro-2-methylphenyl)((R)-1-((S)-2-(methylamino)-3-((R)-oxepan-3-yl)propylcarbamoyl)piperidin-3-yl)methoxy)ethylcarbamate], the figure is below 1 nM.
`COCC(C)(C)C[C@H](N)CNC(=O)N1CCC[C@@H]([C@@H](OCCNC(=O)OC)c2cccc(F)c2)C1` [I*-14a, methyl 2-((R)—((R)-1-((S)-2-amino-5-methoxy-4,4-dimethylpentylcarbamoyl)piperidin-3-yl)(3-fluorophenyl)methoxy)ethylcarbamate]: the IC50 is above 50 nM.
On to `CNC[C@H](CC1CCC(F)(F)CC1)NC(=O)N1CCC[C@@H]([C@@H](OCCNC(=O)OC)c2cc(F)cc(F)c2)C1` [I*-147a, methyl 2-((R)-((R)-1-((S)-1-(4,4-difluorocyclohexyl)-3-(methylamino)propan-2-ylcarbamoyl)piperidin-3-yl)(3,5-difluorophenyl)methoxy)ethylcarbamate], for which the IC50 is below 1 nM.
Regarding `CNC[C@H](CC1CCC(F)(F)CC1)NC(=O)N1CCC[C@@H]([C@@H](OCCNC(=O)OC)c2cc(F)cc(Cl)c2)C1` [I*-153a, methyl 2-((R)-(3-chloro-5-fluorophenyl)((R)-1-((S)-1-(4,4-difluorocyclohexyl)-3-(methylamino)propan-2-ylcarbamoyl)piperidin-3-yl)methoxy)ethylcarbamate], the IC50 was below 1 nM.
Turning to `CNC[C@H](CC12CC3CC(CC1C3)C2)NC(=O)N1CCC[C@@H]([C@@](C)(OCCNC(=O)OC)c2cccc(Cl)c2)C1` [I*-151a, methyl 2-((R)-1-(3-chlorophenyl)-1-((3R)-1-((S)-1-(3-noradamantyl)-3-(methylamino)propan-2-ylcarbamoyl)piperidin-3-yl)ethoxy)ethylcarbamate], the IC50 is below 1 nM.
For the molecule `CNC[C@H](CC1CCCCC1)N/C(=N\C#N)N1CCC[C@@H]([C@@H](OCCNC(=O)OC)c2cccc(Cl)c2)C1` [I*-127a, methyl 2-((R)-(3-chlorophenyl)((R)-1-(N′-cyano-N—((S)-1-cyclohexyl-3-(methylamino)propan-2-yl)carbamimidoyl)piperidin-3-yl)methoxy)ethylcarbamate], the IC50 was below 20 nM.
Take `CNC[C@H](CC1CCCCC1)NC(=O)N1CCC[C@@H]([C@@H](OCCNC(=O)OC)c2nc(C)cs2)C1` [I*-32a, methyl 2-((R)-((R)-1-((S)-1-cyclohexyl-3-(methylamino)propan-2-ylcarbamoyl)piperidin-3-yl)(4-methylthiazol-2-yl)methoxy)ethylcarbamate]: the IC50 was below 10 nM.
Regarding `CNC[C@H](CC1(C)CCCCC1)NC(=O)N1CCC[C@@H]([C@@H](OCCNC(=O)OC)c2cccc(Cl)c2)C1` [I*-90a, methyl 2-((R)-(3-chlorophenyl)((R)-1-((S)-1-(methylamino)-3-(1-methylcyclohexyl)propan-2-ylcarbamoyl)piperidin-3-yl)methoxy)ethylcarbamate], the half-inhibitory concentration (IC50) was below 1 nM.
